Data set [1] deals with T1, human serotonin 5-HT2A receptor (Homo sapiens, UniProt P28223).
T1 construct: host or cells: CHO-K1
Put plainly: Radioligand binding, [3H]-ketanserin displacement, CHO-K1 cells. As to conditions: mean ± SEM, three independent binding experiments; read-out: Ki [nM] 5-HT2AR.

A further data set concerns the target 5-HT6R (Homo sapiens, UniProt P50406). Put plainly: Inhibition of 5-CT-induced cAMP production in 1321N1 cells (LANCE TR-FRET). The class given is cell-based. Also noted: host or cells: 1321N1 (frozen recombinant cells). To be noted: 5-CT as agonist, mean ± SEM, three independent experiments.
The target in another data set is T2, human 5-HT1A receptor (Homo sapiens, UniProt P08908).
T2 construct: expressed in transfected cells
T2 sequence (P08908 1-422): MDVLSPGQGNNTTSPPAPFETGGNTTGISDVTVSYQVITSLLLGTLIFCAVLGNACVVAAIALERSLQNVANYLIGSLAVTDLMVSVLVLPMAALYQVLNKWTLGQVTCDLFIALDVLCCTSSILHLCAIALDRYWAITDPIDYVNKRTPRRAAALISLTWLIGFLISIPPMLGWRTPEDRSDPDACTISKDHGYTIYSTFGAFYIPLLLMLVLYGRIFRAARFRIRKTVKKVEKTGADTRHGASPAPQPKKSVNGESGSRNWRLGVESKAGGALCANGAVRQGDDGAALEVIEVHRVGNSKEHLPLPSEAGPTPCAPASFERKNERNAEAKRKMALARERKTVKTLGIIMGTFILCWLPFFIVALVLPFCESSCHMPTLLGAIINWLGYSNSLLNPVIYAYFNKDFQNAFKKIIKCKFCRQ
Put plainly: Radioligand binding, [3H]-8-OH-DPAT displacement, HEK-293 cells. As to conditions: mean ± SEM, three independent binding experiments; read-out: Ki [nM] 5-HT1AR. On the procedure: All experiments were performed in HEK-293 cells, which stably express the human 5-HT1A, 5-HT6, 5-HT7b, and D2L receptors, or using CHO-K1 cells expressing human serotonin 5-HT2A receptor, following the previously reported procedures. For displacement studies, the following radioligands (PerkinElmer, USA) at given concentrations were used at: 2.5 nM [^3H]-8-OH-DPAT (135.2 Ci/ mmol); 1 nM [^3H]-ketanserin (53.4 Ci/mmol); 2 nM [^3H]-LSD (83.6 Ci/mmol); 0.8 nM [^3H]-5-CT (39.2 Ci/mmol) or 2.5 nM [^3H]-raclopride (76.0 Ci/mmol) for 5-HT1A, 5-HT2A, 5-HT6, 5-HT7b and D2L receptors, respectively. All tested compounds were evaluated in triplicate at 7 concentrations (10^−10–10^−4 M). The inhibition constants (Ki) were calculated from the Cheng–Prusoff equation [25]. A detailed description is reported in the Supporting Information.
1. Procedure for radioligand binding assay
All experiments were carried out according to the previously published procedures. HEK293 cells stably expressing human 5-HT1A, 5-HT6, 5-HT7b and D2L receptors (prepared with the use of Lipofectamine 2000) or CHO-K1 cells with plasmid containing the sequence coding for the human serotonin 5-HT2A receptor (Perkin Elmer) were maintained at 37 °C in a humidified atmosphere containing 5% CO2 and grown in Dulbecco’s Modified Eagle’s Medium containing 10% dialyzed fetal bovine serum and 500 μg/ml G418 sulfate. For membrane preparation, cells were cultured in 150 cm2 flasks, grown to 90% confluence, washed twice with pre-warmed to 37 °C phosphate buffered saline (PBS) and centrifuged (200 × g) in PBS containing 0.1 mM EDTA and 1 mM dithiothreitol. Prior to membrane preparation, pellets were stored at –80 °C. […]
The process of equilibration was terminated by rapid filtration through Unifilter plates with a 96-well cell harvester and radioactivity retained on the filters was quantified on a Microbeta plate reader (PerkinElmer, USA). […] The inhibition constants (Ki) were calculated from the Cheng-Prusoff equation [4].

Data set [2] in a line: Cytotoxicity, MTT test, HepG2. Format: cell-based. As to conditions: human, HepG2 cells (human hepatocellular carcinoma). Here is the method: Hepatotoxicity, neurotoxicity, and glial cytotoxicity were investigated using the following cellular models: human hepatocellular carcinoma (HepG2), human neuroblastoma (SHSY-5Y), and mouse astrocytes (C8-D1A), all from ATCC (American Type Culture Collection, Manassas, VA, USA). Cells were cultured in appropriate culture media recommended by ATCC supplemented with 10% fetal bovine serum (FBS; Gibco, Life Technologies, Carlsbad, CA, USA) and 1% antibiotic mixture (Gibco, Life Technologies, Carlsbad, CA, USA). Cells were cultured at standard conditions (5% CO2, 95% humidity, 37 °C). For cytotoxicity experiments, cells were seeded into 96 well plates at an initial density of 2000 cells/well. After overnight incubation, cells were treated with 3e, 3f, and 3g in a concentration range of 0.78–50 µM for 48 h; then, an MTT assay was performed as described previously. Briefly, following cell exposure, 10 µL of MTT reagent was added to each well. After the next 4 h, the medium was aspirated, and formazan produced in cells appeared as dark crystals in the bottom of the wells. Next, 100 µL DMSO was added to each well. Then, the optical density of the solution (OD) at 570 nm was determined on a plate reader (Spectra Max iD3, Molecular Devices, San Jose, CA, USA). The experiments were run three times in triplicates.
(In general: Formazan colour is commonly taken as a measure of viable cells.)

Some results are limits rather than exact numbers.

T1 sequence (P28223 whole entry): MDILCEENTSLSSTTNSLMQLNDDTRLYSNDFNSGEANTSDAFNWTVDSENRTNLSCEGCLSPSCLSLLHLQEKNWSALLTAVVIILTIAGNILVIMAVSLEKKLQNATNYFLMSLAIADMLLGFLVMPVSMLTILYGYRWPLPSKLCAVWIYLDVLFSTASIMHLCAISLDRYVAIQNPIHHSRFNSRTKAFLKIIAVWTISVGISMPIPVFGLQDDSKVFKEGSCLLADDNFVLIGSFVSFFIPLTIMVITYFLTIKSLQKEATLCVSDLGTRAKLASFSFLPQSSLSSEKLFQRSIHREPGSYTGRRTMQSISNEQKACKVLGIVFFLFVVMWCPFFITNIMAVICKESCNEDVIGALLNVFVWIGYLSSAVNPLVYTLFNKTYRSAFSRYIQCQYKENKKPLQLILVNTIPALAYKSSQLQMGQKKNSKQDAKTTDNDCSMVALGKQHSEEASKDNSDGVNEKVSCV
5-HT6R, sequence (P50406 whole entry): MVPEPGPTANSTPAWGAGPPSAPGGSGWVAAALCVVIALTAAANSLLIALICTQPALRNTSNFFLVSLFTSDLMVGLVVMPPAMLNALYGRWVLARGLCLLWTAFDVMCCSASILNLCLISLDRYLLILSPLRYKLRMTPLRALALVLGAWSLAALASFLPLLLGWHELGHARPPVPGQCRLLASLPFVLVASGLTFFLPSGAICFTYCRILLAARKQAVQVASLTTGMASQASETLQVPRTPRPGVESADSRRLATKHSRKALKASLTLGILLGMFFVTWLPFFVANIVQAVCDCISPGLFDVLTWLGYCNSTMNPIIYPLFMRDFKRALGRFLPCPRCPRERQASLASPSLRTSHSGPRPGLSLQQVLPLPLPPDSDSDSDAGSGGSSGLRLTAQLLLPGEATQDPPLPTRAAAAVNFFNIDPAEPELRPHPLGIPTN

A word on the Ki: it is a dissociation constant, usually derived from enzyme kinetics or from competition with a known ligand. As a reminder, the IC50 is the concentration that inhibits the measured activity by half. Read a low IC50 as inhibition by little substance. As for `O=S(=O)(c1cccc(N2CCNCC2)c1)N1Cc2cccc(Br)c2C1` [3g, 4-Bromo-2-{[3-(piperazin-1-yl)phenyl]sulfonyl}isoindoline], the values for the Ki (in data set [1]; on human 5-HT1A receptor) were 159 ± 25 nM and 680 ± 33 nM, respectively. The Kb on 5-HT6R came to 1.6 ± 0.3 nM. This molecule returned an IC50 at 48 h in data set [2] above 50000 nM.

As for `O=S(=O)(c1cccc(N2CCNCC2)c1)N1Cc2ccccc2C1` [3e, 2-{[3-(Piperazin-1-yl)phenyl]sulfonyl}isoindoline], the Ki in data set [1] is 128 ± 37 nM; on human 5-HT1A receptor it was 951 ± 120 nM. Besides, on 5-HT6R, the Kb amounted to 0.7 ± 0.2 nM. In data set [2], the IC50 at 48 h is above 50000 nM.

On to `O=S(=O)(c1cccc(N2CCNCC2)c1)N1Cc2cccc(Cl)c2C1` [3f, 4-Chloro-2-{[3-(piperazin-1-yl)phenyl]sulfonyl}isoindoline], for which the Ki in data set [1] was found to be 170 ± 32 nM; on human 5-HT1A receptor it was 385 ± 71 nM. Moreover, the Kb on 5-HT6R was 3.5 ± 0.8 nM. In addition, in data set [2], the IC50 at 48 h is above 50000 nM.

Values taken from publication PMC9855333, “1-(Arylsulfonyl-isoindol-2-yl)piperazines as 5-HT6R Antagonists: Mechanochemical Synthesis, In Vitro Pharmacological Properties and Glioprotective Activity” (Biomolecules, 2022).
